Target: T1, xanthine oxidase (Rattus norvegicus, UniProt P22985)
T1 construct: administered orally to seven-week-old male Wistar rats (4 rats per group); from tissue; host or cells: whole animal (male Wistar rats); the enzyme is endogenous and was not isolated
Test: Effect of lowering serum uric acid level in vivo (oral, Wistar rats)
Settings: male Wistar rats, 0.3 mg/5 ml/kg in 0.5% methylcellulose, blood collected 6 hours after administration
Procedure: Method for Evaluating the Effect of Lowering Serum Uric Acid Level In Vivo
Each of the test compounds was suspended in a 0.5% methylcellulose (MC) aqueous solution and administered orally to seven-week-old male Wistar rats (4 rats per group) compulsorily through a feeding tube at a dose of 0.3 mg/5 ml/kg (1 mg/5 ml/kg for Example 17 and Compound 44 of J. Medicinal Chemistry, (1975) as a control). The blood was collected from the orbital sinus at 6 hours after administration of the test compound. Each blood sample was allowed to clot for one hour and then centrifuged at 2000×g for 10 minutes to obtain serum. The uric acid level in the serum was determined using a kit (Wako Pure Chemicals Industries, Ltd.; phosphotungstic acid method) and a reduction rate of serum uric acid level was calculated by the following formula:
Reduction rate of serum uric acid level=(1-Average serum uric acid level in the group receiving a test compound/Average serum uric acid level in the group receiving MC)×100

T1 sequence (P22985 whole entry): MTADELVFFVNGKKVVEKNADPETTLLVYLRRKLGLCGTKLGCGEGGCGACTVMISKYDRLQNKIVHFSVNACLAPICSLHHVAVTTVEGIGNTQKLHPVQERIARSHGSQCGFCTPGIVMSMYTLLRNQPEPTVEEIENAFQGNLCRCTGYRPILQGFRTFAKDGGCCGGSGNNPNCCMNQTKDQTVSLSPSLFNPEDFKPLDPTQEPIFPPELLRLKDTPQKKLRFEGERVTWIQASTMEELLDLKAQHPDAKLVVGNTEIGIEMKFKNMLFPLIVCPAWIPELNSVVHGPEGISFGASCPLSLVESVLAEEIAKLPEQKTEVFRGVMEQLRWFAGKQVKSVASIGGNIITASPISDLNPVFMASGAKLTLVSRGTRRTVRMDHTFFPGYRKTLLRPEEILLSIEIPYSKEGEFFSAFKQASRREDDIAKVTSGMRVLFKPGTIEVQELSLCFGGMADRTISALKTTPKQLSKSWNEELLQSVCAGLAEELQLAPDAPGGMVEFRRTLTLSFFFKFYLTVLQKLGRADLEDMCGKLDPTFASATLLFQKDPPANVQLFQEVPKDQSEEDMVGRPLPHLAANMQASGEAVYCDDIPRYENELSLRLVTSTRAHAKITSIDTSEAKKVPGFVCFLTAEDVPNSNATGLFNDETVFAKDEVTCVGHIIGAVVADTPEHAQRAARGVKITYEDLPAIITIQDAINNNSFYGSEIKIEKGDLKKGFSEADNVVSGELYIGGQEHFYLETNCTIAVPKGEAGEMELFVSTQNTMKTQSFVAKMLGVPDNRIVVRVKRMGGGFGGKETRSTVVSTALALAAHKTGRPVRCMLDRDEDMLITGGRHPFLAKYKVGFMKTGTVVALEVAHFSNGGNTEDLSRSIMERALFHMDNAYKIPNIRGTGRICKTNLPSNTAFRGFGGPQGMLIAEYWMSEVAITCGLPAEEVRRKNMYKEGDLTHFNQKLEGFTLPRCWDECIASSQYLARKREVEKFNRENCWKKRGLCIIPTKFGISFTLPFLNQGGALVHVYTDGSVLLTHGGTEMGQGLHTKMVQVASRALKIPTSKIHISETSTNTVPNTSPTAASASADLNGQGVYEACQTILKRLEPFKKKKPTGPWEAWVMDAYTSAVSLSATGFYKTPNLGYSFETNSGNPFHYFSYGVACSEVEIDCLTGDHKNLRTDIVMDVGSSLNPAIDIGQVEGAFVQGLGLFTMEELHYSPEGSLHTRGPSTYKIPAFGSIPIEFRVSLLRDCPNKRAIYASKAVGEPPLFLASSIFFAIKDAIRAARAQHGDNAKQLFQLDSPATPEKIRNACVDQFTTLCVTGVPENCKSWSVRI

Q: Which “Reduction rate of serum uric acid level” value does the source give for Cc1cc(-c2nc(-c3ccc(NCC(C)C)c([N+](=O)[O-])c3)n[nH]2)ccn1 [Example 5, 3-(4-isobutylamino-3-nitrophenyl)-5-(2-methyl-4-pyridyl)-1,2,4-triazole] here?
A: Its value is 39.9%.

Q: With Cc1cc(-c2nc(-c3ccc(Sc4ccccc4)c([N+](=O)[O-])c3)n[nH]2)ccn1 [Example 6, 5-(2-methyl-4-pyridyl)-3-(3-nitro-4-phenylthiophenyl)-1,2,4-triazole] as the compound, how does the “Reduction rate of serum uric acid level” value read?
A: The value was 40.6%.

Q: For COc1ccc(COc2ccc(-c3nc(-c4ccnc(C)c4)n[nH]3)cc2C#N)cc1 [Example 24, 3-(2-methyl-4-pyridyl)-5-[3-cyano-4-(4-methoxybenzyloxy)phenyl]-1,2,4-triazole], which “Reduction rate of serum uric acid level” value is on record?
A: The value was 38.3%.

Q: With COCCOc1ccc(-c2nc(-c3ccnc(C)c3)n[nH]2)cc1C#N [Example 31, 3-(2-methyl-4-pyridyl)-5-(3-cyano-4-methoxyethoxyphenyl)-1,2,4-triazole] as the compound, how does the “Reduction rate of serum uric acid level” value read?
A: The value was 36.5%.

Q: With COCCOCCOc1ccc(-c2nc(-c3ccnc(C)c3)n[nH]2)cc1C#N [Example 32, 3-(2-methyl-4-pyridyl)-5-[3-cyano-4-{(2-methoxyethoxy)ethoxy}phenyl]-1,2,4-triazole] as the compound, how does the “Reduction rate of serum uric acid level” value read?
A: Its value is 52.0%.

Q: Cc1cc(-c2nc(-c3ccc(OCC(C)C)c([N+](=O)[O-])c3)n[nH]2)ccn1 [Example 1, 3-(4-isobutoxy-3-nitrophenyl)-5-(2-methyl-4-pyridyl)-1,2,4-triazole] was tested. Which “Reduction rate of serum uric acid level” value did it give?
A: Its value is 66.5%.

Q: How did the “Reduction rate of serum uric acid level” value turn out when Cc1cc(-c2nc(-c3ccc(N4CCN(C)CC4)c([N+](=O)[O-])c3)n[nH]2)ccn1 [Example 4, 3-[4-(4-methyl-1-piperazino)-3-nitrophenyl]-5-(2-methyl-4-pyridyl)-1,2,4-triazole] was run?
A: Its value is 43.9%.

Q: COc1ccc(-c2nc(-c3ccnc(C)c3)n[nH]2)cc1C#N [Example 26, 3-(2-methyl-4-pyridyl)-5-(3-cyano-4-methoxyphenyl)-1,2,4-triazole] was tested. Which “Reduction rate of serum uric acid level” value did it give?
A: Its value is 37.9%.

Q: With C#CCOc1ccc(-c2nc(-c3ccnc(C)c3)n[nH]2)cc1C#N [Example 28, 3-(2-methyl-4-pyridyl)-5-(3-cyano-4-propargyloxyphenyl)-1,2,4-triazole] as the compound, how does the “Reduction rate of serum uric acid level” value read?
A: Its value is 35.3%.

Q: How did the “Reduction rate of serum uric acid level” value turn out when COCCOCCOCCOc1ccc(-c2nc(-c3ccnc(C)c3)n[nH]2)cc1C#N [Example 33, 3-(2-methyl-4-pyridyl)-5-[3-cyano-4-{(<2-methoxyethoxy>ethoxy)ethoxy}phenyl]-1,2,4-triazole] was run?
A: The value was 44.7%.

Q: For Cc1cc(-c2nc(-c3ccc(OCOCc4ccccc4)c([N+](=O)[O-])c3)n[nH]2)ccn1 [Example 10, 3-(4-benzyloxymethyloxy-3-nitrophenyl)-5-(2-methyl-4-pyridyl)-1,2,4-triazole], which “Reduction rate of serum uric acid level” value is on record?
A: Its value is 41.6%.

Q: Which “Reduction rate of serum uric acid level” value does the source give for Cc1cc(-c2nc(-c3ccc(OCC4CCCCO4)c([N+](=O)[O-])c3)n[nH]2)ccn1 (centres unmarked) [Example 11, 5-(2-methyl-4-pyridyl)-3-[3-nitro-4-(2-tetrahydropyranylmethyl)oxyphenyl]-1,2,4-triazole] here?
A: The value was 41.6%.

Q: With N#Cc1cc(-c2n[nH]c(-c3cc[n+]([O-])cc3)n2)ccn1 [Example 35, 3-(2-cyano-4-pyridyl)-5-(1-oxy-4-pyridyl)-1,2,4-triazole] as the compound, how does the “Reduction rate of serum uric acid level” value read?
A: The value was 46.8%.

Q: How did the “Reduction rate of serum uric acid level” value turn out when COc1ccc(-c2nc(-c3ccnc(C)c3)n[nH]2)cc1[N+](=O)[O-] [Example 21, 3-(2-methyl-4-pyridyl)-5-(3-nitro-4-methoxyphenyl)-1,2,4-triazole] was run?
A: The value was 52.9%.

Q: Cc1cc(-c2n[nH]c(-c3ccc(OCC4CC4)c(C#N)c3)n2)ccn1 [Example 22, 3-(2-methyl-4-pyridyl)-5-(3-cyano-4-cyclopropylmethoxyphenyl)-1,2,4-triazole] was tested. Which “Reduction rate of serum uric acid level” value did it give?
A: Its value is 32.6%.

Q: With Cc1cc(-c2nc(-c3ccc(SCC(C)C)c([N+](=O)[O-])c3)n[nH]2)ccn1 [Example 7, 3-(4-isobutylthio-3-nitrophenyl)-5-(2-methyl-4-pyridyl)-1,2,4-triazole] as the compound, how does the “Reduction rate of serum uric acid level” value read?
A: Its value is 42.7%.

Q: CC(C)COc1ccc(-c2n[nH]c(-c3ccncc3)n2)cc1C#N [Example 2, 3-(3-cyano-4-isobutoxyphenyl)-5-(4-pyridyl)-1,2,4-triazole] was tested. Which “Reduction rate of serum uric acid level” value did it give?
A: The value was 62.3%.

Q: For CC(C)COc1ccc(-c2n[nH]c(-c3ccncc3)n2)cc1[N+](=O)[O-] [Example 13, 3-(4-isobutoxy-3-nitrophenyl)-5-(4-pyridyl)-1,2,4-triazole], which “Reduction rate of serum uric acid level” value is on record?
A: Its value is 46.8%.

Q: Which “Reduction rate of serum uric acid level” value does the source give for CCCCOc1ccc(-c2n[nH]c(-c3ccncc3)n2)cc1[N+](=O)[O-] [Example 15, 3-(4-butoxy-3-nitrophenyl)-5-(4-pyridyl)-1,2,4-triazole] here?
A: Its value is 41.2%.

Q: For Cc1cc(-c2nc(-c3ccnc(C#N)c3)n[nH]2)ccn1 [Example 23, 3-(2-cyano-4-pyridyl)-5-(2-methyl-4-pyridyl)-1,2,4-triazole], which “Reduction rate of serum uric acid level” value is on record?
A: The value was 41.1%.

Q: With Cc1cc(-c2nc(-c3ccnc(Cl)c3)n[nH]2)ccn1 [Example 27, 3-(2-chloro-4-pyridyl)-5-(2-methyl-4-pyridyl)-1,2,4-triazole] as the compound, how does the “Reduction rate of serum uric acid level” value read?
A: Its value is 32.9%.

Q: How did the “Reduction rate of serum uric acid level” value turn out when Cc1cc(-c2n[nH]c(-c3ccc(OCCOCCOCCCl)c(C#N)c3)n2)ccn1 [Example 29, 3-(2-methyl-4-pyridyl)-5-[3-cyano-4-{(<2-chloroethoxy>ethoxy)ethoxy}phenyl]-1,2,4-triazole] was run?
A: Its value is 40.7%.

Q: CSCOc1ccc(-c2n[nH]c(-c3ccnc(C)c3)n2)cc1[N+](=O)[O-] [Example 9, 5-(2-methyl-4-pyridyl)-3-(4-methylthiomethyloxy-3-nitrophenyl)-1,2,4-triazole] was tested. Which “Reduction rate of serum uric acid level” value did it give?
A: Its value is 35.7%.

Q: How did the “Reduction rate of serum uric acid level” value turn out when N#Cc1cc(-c2nc(-c3ccncc3)n[nH]2)ccn1 [Example 12, 5-(2-cyano-4-pyridyl)-3-(4-pyridyl)-1,2,4-triazole] was run?
A: The value was 51.1%.

Q: For Cc1cc(-c2n[nH]c(-c3ccc(OCC(C)C)c(C#N)c3)n2)ccn1 [Example 20, 3-(2-methyl-4-pyridyl)-5-(3-cyano-4-isobutoxyphenyl)-1,2,4-triazole], which “Reduction rate of serum uric acid level” value is on record?
A: Its value is 67.5%.

Q: How did the “Reduction rate of serum uric acid level” value turn out when Cc1cc(-c2n[nH]c(-c3ccc(OCCC(C)C)c(C#N)c3)n2)ccn1 [Example 25, 3-(2-methyl-4-pyridyl)-5-(3-cyano-4-isopentyloxyphenyl)-1,2,4-triazole] was run?
A: The value was 47.2%.

Q: How did the “Reduction rate of serum uric acid level” value turn out when N#Cc1cc(-c2n[nH]c(-c3ccnc(Cl)c3)n2)ccn1 [Example 37, 3-(2-cyano-4-pyridyl)-5-(2-chloro-4-pyridyl)-1,2,4-triazole] was run?
A: The value was 33.6%.

Q: Cc1cc(-c2nc(-c3ccc(OCC(C)C)c([N+](=O)[O-])c3)nn2COC(=O)C(C)(C)C)ccn1 [Example 14, 3-(4-isobutoxy-3-nitrophenyl)-5-(2-methyl-4-pyridyl)-N-pivaloyloxymethyl-1,2,4-triazole] was tested. Which “Reduction rate of serum uric acid level” value did it give?
A: The value was 43.0%.

Q: For CC(C)Oc1ccc(-c2nc(-c3ccncc3)n[nH]2)cc1[N+](=O)[O-] [Example 16, 5-(4-isopropoxy-3-nitrophenyl)-3-(4-pyridyl)-1,2,4-triazole], which “Reduction rate of serum uric acid level” value is on record?
A: The value was 36.1%.

Q: For COCCOCOc1ccc(-c2n[nH]c(-c3ccnc(C)c3)n2)cc1C#N [Example 3, 3-[3-cyano-4-{(2-methoxy)ethoxymethyl}oxyphenyl]-5-(2-methyl-4-pyridyl)-1,2,4-triazole], which “Reduction rate of serum uric acid level” value is on record?
A: Its value is 40.0%.

Q: Cc1cc(-c2nc(-c3ccc(OCSc4ccccc4)c([N+](=O)[O-])c3)n[nH]2)ccn1 [Example 8, 5-(2-methyl-4-pyridyl)-3-(3-nitro-4-phenylthiomethyloxyphenyl)-1,2,4-triazole] was tested. Which “Reduction rate of serum uric acid level” value did it give?
A: Its value is 32.5%.

Same assay, conditions: male Wistar rats, 1 mg/5 ml/kg in 0.5% methylcellulose, blood collected 6 hours after administration

Q: CC(C)COc1ccc(-c2n[nH]c(-c3ccnc(Cl)c3)n2)cc1[N+](=O)[O-] [Example 17, 5-(2-chloro-4-pyridyl)-3-(4-isobutoxy-3-nitrophenyl)-1,2,4-triazole] was tested. Which “Reduction rate of serum uric acid level” value did it give?
A: Its value is 40.6%.
